# How the values were obtained:
# Assay type in all cases: in vivo
# [1] = test system: Housefly [Musca domestica]; test: Housefly insecticidal test; settings: μg per 25 female flies; mortality after 48 hours
# Outline: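 LC50, as μg compound per 25 female flies, comes from dosage-mortality curves with doses from 100 μg downward. Residues were made by evaporating acetone plus 0.01% peanut oil in dishes, onto which 1-2-day-old females were caged; deaths were counted after 48 hours.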
# [2] = test system: Tobacco Budworm [Heliothis virescens (Fabricius)] eggs; test: Tobacco budworm egg test; settings: 2-day old eggs, percent in solution
# Outline: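 LC50 is given as percent compound in the dipping solution, fitted from dosage-mortality curves. Two-day-old eggs on paper towel were dipped in acetone solutions (top concentration 0.1%), kept at 78° F on rearing medium, and scored after control hatch and larval feeding.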
# [3] = test system: Beet Armyworm (Spodoptera exigua); test: Beet armyworm insecticidal test; settings: second-instar larvae, percent in solution; five days
# Procedure: (§1) The compounds in Tables 1 and 2 above were tested for insecticidal activity using the following testing procedures. LC50 values, based on the results of these tests and calculated according to dosage-mortality curves, are expressed in Table 3.
# Beet Armyworm (Spodoptera exigua):
# Test compounds were diluted in a 50-50 acetone-water solution. Young leaves of sugar beets (Beta vulgaris) were immersed in the test solutions for 2-3 seconds and placed on a wire screen to dry. The dried leaves were placed in petri dishes containing a moistened filter paper and infested with five second-instar beet armyworm larvae. The dishes were placed in a high humidity chamber. Mortality of the larvae was recorded five days later. Test concentrations ranged from 0.1% downward. The LC-50 values are expressed below in Table 3 under the heading "BAW" in terms of percent of the test compound in solution.
# [4] = test system: Cabbage Looper [Trichoplusia ni (Hubner)]; test: Cabbage looper insecticidal test; settings: second-instar larvae, percent in solution; 3-5 days
# Outline: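 LC50, as percent test compound in solution, derived from dosage-mortality curves; concentrations started at 0.1% and went lower. Five second-instar larvae per dish fed on acetone-water-dipped, dried squash cotyledons in a humid chamber. Deaths recorded 3-5 days post-infestation.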
# [5] = test system: Aster Leafhopper [Macrosteles fascifrens (Stal)]; test: Aster leafhopper insecticidal test; settings: adults/nymphs, percent in solution; 48 hours
# Outline: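 LC50 values, given as percent of test compound in the dip solution, were derived from dosage-mortality curves over concentrations from 0.05% downward. Mortality was counted 48 hours after ten leafhopper adults/nymphs were enclosed on treated seedlings. The seedlings were oats, about 10 cm tall, briefly dipped in 50-50 acetone-water.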
# [6] = test system: Tobacco Budworm [Heliothis virescens (Fabricius)] larvae; test: Tobacco budworm contact test; settings: second-instar larvae, percent in solution, 5 days
# Procedure: as §1
# Tobacco Budworm [Heliothis virescens (Fabricius)]:
# (a) Contact: Test compounds were diluted in a 50-50 acetone-water solution. Cotton (Gossypium sp.) cotyledons were immersed in the test solutions for 2-3 seconds and placed on a wire screen to dry. The dried leaves were placed in petri dishes containing a moistened piece of filter paper and infested with 5 second-instar tobacco budworm larvae. The dishes were placed in a high humidity chamber for 5 days, and percent mortality of the larvae recorded. Test concentrations ranged from 0.1% downward. The LC-50 values are expressed below in Table 3 under the heading "TBW-C" in terms of percent of the test compound in the solution.
# [7] = test system: Maize weevil [Sitophilus Zeamais (Motschulsky)]; test: Maize weevil insecticidal test; settings: adult weevils, percent in solution; 48 hours
# Outline: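 LC50, in percent of compound in solution, was derived from dosage-mortality curves after 48 h at about 25 °C. Ten adult weevils per container fed on four corn seeds briefly immersed in acetone:water (50:50) solutions of up to 0.01% and dried.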
Structure (SMILES),"LC50, HF [1] [µg]","LC50, TBW, E (TBW-E) [2] [%]","LC50, BAW [3] [%]","LC50, CL [4] [%]","LC50, LH [5] [%]","LC50, TBW, C (TBW-C) [6] [%]","LC50, MW [7] [%]"
CC(C)C(=Nc1cccc(Cl)c1)OCc1cccc(Oc2ccccc2)c1 [Compound 7],8,0.009,0.006,0.006,0.0002,,
CC(C)C(=Nc1ccc(Cl)cc1)OCc1ccc(F)c(Oc2ccccc2)c1 [Compound 23],5,0.017,0.001,0.0005,,,
CC(C)C(=Nc1ccc(F)cc1)OCc1cccc(Oc2ccccc2)c1 [Compound 46],7,0.016,0.006,0.003,0.002,,
CC(C)C(=Nc1cccc(C(F)(F)F)c1)OCc1cccc(Oc2ccccc2)c1 [Compound 67],15,0.01,0.006,0.001,0.00027,,
O=[N+]([O-])c1cccc(N=C(OCc2cccc(Oc3ccccc3)c2)C(Cl)Cl)c1 [Compound 174],17,> 0.1,0.1,0.03,,,
CC(C)C(=Nc1cccc(Cl)c1)OCc1cccc(Oc2ccc(F)cc2)c1 [Compound 194],10,0.04,,0.0005,0.0005,0.0017,> 0.01
CC(C)C(=Nc1ccc(F)c(Cl)c1)OCc1cccc(Oc2ccc(C#N)cc2)c1 [Compound 196],17,> 0.1,,0.0006,> 0.05,0.001,> 0.01
CC(C)C(=Nc1cccc(C(F)(F)F)c1)OCc1cccc(Oc2ccc(F)cc2)c1 [Compound 202],18,> 0.1,,0.00024,0.0003,0.0007,> 0.01
CC(C)C(=Nc1ccc(F)cc1F)OCc1cccc(Oc2ccc(F)cc2)c1 [Compound 209],17,0.1,,0.0007,0.001,0.005,> 0.01
CC(C)C(=Nc1ccc(Br)cc1)OCc1cccc(Oc2ccc(F)cc2)c1 [Compound 226],16,0.1,,0.0005,0.002,0.001,0.009
CC(C)C(=Nc1ccc(I)cc1)OCc1cccc(Oc2ccc(F)cc2)c1 [Compound 234],38,0.09,,0.00045,0.003,0.0013,> 0.01
CC(C)C(=Nc1ccc(F)c(Cl)c1)OCc1cccc(Oc2ccc(Br)cc2)c1 [Compound 238],25,0.05,,0.0002,> 0.05,0.0004,> 0.01
CC(C)C(=Nc1ccc(F)c(Br)c1)OCc1cccc(Oc2ccc(F)cc2)c1 [Compound 253],10,> 0.1,,0.00013,0.003,0.0005,> 0.01
CC(C)C(=Nc1ccc(F)c(C(F)(F)F)c1)OCc1ccc(F)c(Oc2ccc(Cl)cc2)c1 [Compound 297],23,0.025,,0.00027,0.0001,0.00075,0.0071
CC(C)C(=Nc1ccc(F)c(Cl)c1)OCc1cccc(Oc2ccccc2)n1 [Compound 462],7,0.04,,0.001,0.001,0.0025,> 0.05
C#CCc1c(F)c(F)c(COC(=Nc2ccc(F)c(Cl)c2)C(C)C)c(F)c1F [Compound 520],5.5,> 0.1,,> 0.1,0.0003,0.00075,0.0042
CC(C)C(=Nc1ccc(F)c(Cl)c1F)OCc1cccc(Oc2ccc(F)cc2)n1 [Compound 521],7.5,> 0.1,,0.00005,0.05,0.0005,0.01
CC(C)C(=Nc1ccc(Cl)c(Cl)c1)OCc1cccc(Oc2ccc(Cl)cc2)n1 [Compound 523],22,> 0.1,,0.00015,> 0.05,0.0002,> 0.01
CC(C)C(=Nc1ccc(C(F)(F)F)cc1)OCc1cccc(Oc2ccc(Cl)cc2)n1 [Compound 530],9.8,0.005,,0.00027,0.05,0.00005,> 0.01
CC(C)C(=Nc1ccc(F)c(Cl)c1)OCc1cccc(Oc2ccc(F)c(F)c2)n1 [Compound 531],5,> 0.1,,> 0.1,> 0.05,0.00037,> 0.01
